Results as given in US20150202187A1, “COMPOSITIONS AND METHODS FOR TREATMENT OF VITILIGO” (priority 2012, published 2015).

Tests used:
human melanocytes = test: Melanogenesis in cultured primary human melanocytes; format: cell-based
Experimental: Rapamycin (also called sirolimus) inhibits immune attack by inhibiting the response to interleukin-2 (IL-2) and blocking activation of T- and B-cells. Rapamycin binds to the cytosolic protein FK-binding protein 12 (FKBP12) and inhibits the mammalian target of rapamycin (mTOR) pathway by directly binding the mTOR Complex 1 (mTORC1). […] For example, FIG. 1 depicts a western blot of lysates from HL60 cells, a model system for studying human myeloid cell differentiation, which were treated with rapamycin for 24 hours. […] Additionally, FIG. 2 depicts human melanocytes that were treated with rapamycin (0.01 μM) for 96 hours.
(§1) In FIG. 5, Primary Human melanocytes were treated with each agent or the combination for 96 h. […] FIG. 7 depicts a Western blot for protein expression of survival signals in primary human melanocytes treated with FGF, stem cell factor (SCF), forskolin and alpha-MSH, as compared to untreated melanocytes. […] Designation of 1 indicates the darkening (repigmentation) of skin surrounding hair follicles.

[1] = test system: primary human melanocytes; test: Proliferation of primary human melanocytes; format: cell-based; conditions: 10 ng/mL, 96 h, DMSO as untreated control (FIG. 3)
Experimental: In some embodiments, the present invention is directed to a composition comprising a cosmeceutically acceptable carrier, rapamycin and growth factors such as fibroblast growth factor (FGF), Stem cell Factor (SCF) or Endothelins. […] In FIG. 3, treated Primary Human melanocytes were treated with bFGF (10 ng/mL) with DMSO as untreated control for 96 h. Growth Factors such as basic Fibroblast Growth Factor, Stem Cell Factor and Endothelins are important regulators of melanocyte differentiation, migration, proliferation and survival. Growth factors can therefore protect cells from destruction induced by immune cells. Furthermore, growth factors such as those described, can potentially increase migration of melanoblasts (melanocyte precursor cells) from peripheral regions of vitiligo patches or from hair follicles into the vitiligo lesion thus allowing repigmentation.
as §1

N[C@@H](Cc1ccc(O)cc1)C(=O)O [L-Tyrosine]
melanogenesis in cultured primary melanocytes (human melanocytes; 96 hours (FIG. 10)): increased melanogenesis

N[C@@H](Cc1ccc(O)c(O)c1)C(=O)O [L-dopa, L-DOPA]
melanogenesis compared to untreated melanocytes (human melanocytes; FIG. 6): increased melanogenesis | melanogenesis in human melanocytes (human melanocytes; each agent alone, 96 h (FIG. 4)): melanogenesis increases

bFGF: recombinant human basic fibroblast growth factor (FGF2)
proliferation of primary human melanocytes [1]: increases proliferation
